Test results reported in ChEMBL document CHEMBL1201862, “PubChem BioAssay data set” (2004).
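Each compound was tested at five concentrations against cells in 96-well plates for 48 hours. GI50 = concentration required for 50% inhibition of growth.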 Active and inactive are the calls of the source. Cut-off read from the data, not from the text of the source: active = GI50 up to about 1.1 µM and inactive = higher.

How the values were obtained:
Assay in all cases: growth of human tumour cells (NCI), 48 h
786-0 = system: 786-0
A549 = system: A549
DU-145 = system: DU-145
EKVX = system: EKVX
HCC 2998 = system: HCC 2998
HCT-116 = system: HCT-116
HT-29 = system: HT-29
K562 = system: K562
LOX IMVI = system: LOX IMVI
MDA-MB-435 = system: MDA-MB-435
MDA-N = system: MDA-N
NCI-H23 = system: NCI-H23
NCI-H460 = system: NCI-H460
NCI/ADR-RES = system: NCI/ADR-RES
OVCAR-5 = system: OVCAR-5
OVCAR-8 = system: OVCAR-8
SF-268 = system: SF-268
SW-620 = system: SW-620
UO-31 = system: UO-31
HOP-92 = system: HOP-92

Measured: GI50

Cc1c(-c2ccccc2)c(C#N)c2nnc(C(N)=O)c(N)n12
inactive: 786-0 > 100 µM | A549 > 100 µM | DU-145 > 100 µM | EKVX > 100 µM | HCC 2998 > 100 µM | HCT-116 > 100 µM | HT-29 > 100 µM | K562 > 100 µM | LOX IMVI > 100 µM | MDA-MB-435 > 100 µM | MDA-N > 100 µM | NCI-H23 > 100 µM | NCI-H460 > 100 µM | NCI/ADR-RES > 100 µM | OVCAR-5 > 100 µM | OVCAR-8 > 100 µM | SF-268 > 100 µM | SW-620 > 100 µM | UO-31 > 100 µM

CC1(C)C(=O)/C=C\C(=O)C(C)(C)C(=O)/C=C\C(=O)C(C)(C)C(=O)/C=C\C(=O)C(C)(C)C(=O)/C=C\C1=O
inactive: 786-0 24.1 µM | A549 > 70.8 µM | DU-145 > 100 µM | EKVX 39.6 µM | HCT-116 15.7 µM | HOP-92 12.7 µM | HT-29 17.7 µM | K562 5.43 µM | LOX IMVI 25.2 µM | MDA-MB-435 31.2 µM | MDA-N 41.8 µM | NCI-H23 21.4 µM | NCI-H460 56.6 µM | OVCAR-5 41.1 µM | OVCAR-8 19.7 µM | SF-268 > 45.9 µM | SW-620 11.1 µM | UO-31 34.8 µM

CN1CCN(Cc2ccc(C(=S)Nc3ccccc3)s2)CC1
inactive: 786-0 31.9 µM | A549 55 µM | DU-145 > 100 µM | EKVX 65.3 µM | HCC 2998 33.1 µM | HCT-116 42.5 µM | HT-29 19.6 µM | K562 25.9 µM | LOX IMVI 15.7 µM | MDA-MB-435 31.9 µM | MDA-N 35.6 µM | NCI-H23 18.5 µM | NCI-H460 36.4 µM | NCI/ADR-RES 32.9 µM | OVCAR-5 45.8 µM | OVCAR-8 14.5 µM | SF-268 > 100 µM | SW-620 26.7 µM | UO-31 36.3 µM

O=S(=O)(/N=C1/S/C(=N\c2ccccc2)N(c2ccccc2)/C1=N/S(=O)(=O)c1ccccc1)c1ccccc1
inactive: 786-0 19 µM | A549 22.6 µM | EKVX 21.5 µM | HCC 2998 20.9 µM | HCT-116 17.6 µM | HOP-92 13.6 µM | HT-29 22.8 µM | K562 23.9 µM | MDA-N 16.6 µM | NCI-H23 16.4 µM | NCI-H460 21.3 µM | OVCAR-5 20.8 µM | OVCAR-8 22.8 µM | SW-620 19.4 µM | UO-31 15.8 µM

Cc1ccccc1OC(C)C(=O)NN1C(=O)CC(=O)N(c2ccccc2)C1=S (configuration not stated)
inactive: 786-0 82.4 µM | A549 29.1 µM | DU-145 51.1 µM | EKVX 75.7 µM | HCC 2998 70.8 µM | HCT-116 33.4 µM | HOP-92 37.3 µM | HT-29 76 µM | K562 41.4 µM | LOX IMVI 54.3 µM | MDA-MB-435 73.1 µM | NCI-H23 88.1 µM | NCI-H460 45.8 µM | NCI/ADR-RES 61 µM | OVCAR-5 > 100 µM | OVCAR-8 56.6 µM | SF-268 76.6 µM | SW-620 78.3 µM | UO-31 35.8 µM

CC1(C)OC(=O)C2(O1)C(=O)C1CCCCC12 (configuration not stated)
inactive: 786-0 35.6 µM | A549 26.9 µM | DU-145 > 100 µM | EKVX 21 µM | HCC 2998 > 100 µM | HCT-116 > 100 µM | HT-29 > 100 µM | K562 > 100 µM | MDA-MB-435 > 100 µM | MDA-N 30.9 µM | NCI-H23 > 100 µM | NCI/ADR-RES > 100 µM | OVCAR-5 44.6 µM | OVCAR-8 > 100 µM | SF-268 > 100 µM | SW-620 > 100 µM | UO-31 82.2 µM

O=C(N/N=C/c1ccc([N+](=O)[O-])o1)c1ccc(C(=O)N/N=C/c2ccc([N+](=O)[O-])o2)cc1
inactive: 786-0 76.2 µM | A549 45.5 µM | DU-145 64.4 µM | EKVX > 100 µM | HCT-116 30.1 µM | HOP-92 53.8 µM | HT-29 38.6 µM | K562 34.4 µM | LOX IMVI 34.2 µM | MDA-MB-435 16.2 µM | MDA-N 20.7 µM | NCI-H23 42.3 µM | NCI/ADR-RES 73.3 µM | OVCAR-5 > 100 µM | OVCAR-8 28.4 µM | SF-268 64.7 µM | SW-620 22.4 µM | UO-31 > 100 µM

CCC1=NC(C(F)(F)F)(C(F)(F)F)N=C(/N=C(/N)N(C)C(C(C)C)P(=O)(OC(C)C)OC(C)C)O1 (configuration not stated)
inactive: 786-0 > 100 µM | A549 > 100 µM | DU-145 > 100 µM | EKVX > 100 µM | HCC 2998 > 100 µM | HCT-116 > 100 µM | HT-29 > 100 µM | K562 > 100 µM | LOX IMVI > 100 µM | MDA-MB-435 > 100 µM | MDA-N > 100 µM | NCI-H23 > 100 µM | NCI-H460 > 100 µM | NCI/ADR-RES > 100 µM | OVCAR-5 > 100 µM | OVCAR-8 > 100 µM | SF-268 > 100 µM | SW-620 > 100 µM | UO-31 > 100 µM

Cc1ccc(S(=O)(=O)Nn2c(-c3ccccc3)c(C#N)c(-c3ccc([N+](=O)[O-])cc3)c(C#N)c2=O)cc1
inactive: 786-0 > 100 µM | A549 > 100 µM | EKVX > 100 µM | HCC 2998 > 100 µM | HCT-116 > 100 µM | HOP-92 30.1 µM | HT-29 > 100 µM | LOX IMVI > 100 µM | MDA-MB-435 > 100 µM | MDA-N > 100 µM | NCI-H460 > 100 µM | NCI/ADR-RES > 100 µM | OVCAR-5 > 100 µM | OVCAR-8 > 100 µM | SF-268 > 100 µM | SW-620 > 100 µM

CN(Cc1cnc2nc(N)nc(N)c2n1)c1ccc(C(=O)NC(CCC(=O)NC(CC(P(=O)(O)O)P(=O)(O)O)C(=O)O)C(=O)O)cc1 (configuration not stated)
inactive: 786-0 > 100 µM | A549 > 100 µM | DU-145 > 100 µM | EKVX > 100 µM | HCT-116 > 100 µM | HOP-92 > 100 µM | HT-29 > 100 µM | LOX IMVI > 100 µM | MDA-MB-435 > 100 µM | MDA-N > 100 µM | NCI-H23 > 100 µM | NCI-H460 > 100 µM | NCI/ADR-RES > 100 µM | OVCAR-5 > 100 µM | OVCAR-8 > 100 µM | SF-268 > 100 µM | SW-620 > 100 µM | UO-31 > 100 µM

O=S(=O)(O)c1ccc(NN(c2c(O)ccc3ccccc23)S(=O)(=O)O)cc1
inactive: 786-0 > 100 µM | A549 > 100 µM | DU-145 > 100 µM | EKVX > 100 µM | HCC 2998 > 100 µM | HCT-116 > 100 µM | HT-29 > 100 µM | K562 > 100 µM | LOX IMVI > 100 µM | MDA-MB-435 > 100 µM | MDA-N > 100 µM | NCI-H23 > 100 µM | NCI-H460 > 100 µM | NCI/ADR-RES > 100 µM | OVCAR-5 > 100 µM | OVCAR-8 > 100 µM | SF-268 > 100 µM | SW-620 > 100 µM | UO-31 > 100 µM
